Test results as given in US8426396B2, “Treatment for achondroplasia” (Shriners Hospitals for Children, priority 2008, dated 2013).
Where a SMILES comes first, the peptide text is derived from it. The star is where a group is joined. Cbz = O=C(OCc1ccccc1)*

System: TDII FGFR3
Experiment: Proteasome inhibition in cells expressing TDII FGFR3 (immunoblot)
Assay type: cell-based, mouse
Details: 17-AAG-induced decrease, FIG. 11
Text: The two FGFR3 bands reflect glycosylation differences.

CC(C)C[C@@H](C=O)NC(=O)[C@H](CC(C)C)NC(=O)[C@H](CC(C)C)NC(=O)OCc1ccccc1 [MG132] (Cbz-Leu-Leu-Leu-aldehyde)
TDII FGFR3 degradation: decreased TDII FGFR3 degradation
